Measured values as given in DBAASP.
In brackets after ≈: the same amount, converted by molar mass. Several values for one entry are separate records, joined by “and”; a condition that tells them apart may be missing. Equal entries are not always repeated.

Assays:
Assay in all cases: ≥ marks a high value that may be exact or a test limit, other limits are often not marked, values filed in µg/mL are converted to µM
[1] = tested on: Escherichia coli ATCC 35218
Klebsiella oxytoca = tested on: Klebsiella oxytoca
[2] = tested on: Staphylococcus epidermidis
Acinetobacter baumannii = tested on: Acinetobacter baumannii
Staphylococcus aureus = tested on: Staphylococcus aureus
[3] = tested on: Staphylococcus saprophyticus
Proteus mirabilis = tested on: Proteus mirabilis
Serratia marcescens = tested on: Serratia marcescens
Klebsiella pneumoniae = tested on: Klebsiella pneumoniae
Klebsiella aerogenes = tested on: Klebsiella aerogenes
[4] = tested on: Staphylococcus haemolyticus
Salmonella enterica = tested on: Salmonella enterica
Enterobacter cloacae = tested on: Enterobacter cloacae
Pseudomonas aeruginosa = tested on: Pseudomonas aeruginosa
Escherichia coli UTI89 = tested on: Escherichia coli UTI89
Escherichia coli CFT073 = tested on: Escherichia coli CFT073
[5] = tested on: Pseudomonas aeruginosa ATCC 27853
[6] = tested on: Escherichia coli ATCC 25922
[7] = tested on: Pseudomonas aeruginosa PAO1
Escherichia coli = tested on: Escherichia coli
[8] = tested on: Pseudomonas aeruginosa 885149
[9] = tested on: Pseudomonas aeruginosa 891
[10] = tested on: Staphylococcus aureus MIU-68A
[11] = tested on: Staphylococcus aureus ATCC 25923
[12] = tested on: Staphylococcus xylosus DSM 20267
[13] = tested on: Escherichia coli DSM 1116
[14] = tested on: Franconibacter helveticus DSM 18390
Escherichia coli BL21 = tested on: Escherichia coli BL21
[15] = tested on: Staphylococcus aureus ATCC 29213
[16] = tested on: Staphylococcus aureus FDA486
Escherichia coli MG1655 = tested on: Escherichia coli MG1655
[17] = tested on: Staphylococcus aureus FusA88700
[18] = tested on: Staphylococcus epidermidis LY8
[19] = tested on: Pasteurella multocida C48-3
[20] = tested on: Salmonella enterica subsp. enterica serovar Choleraesuis C78-1
[21] = tested on: Bacillus subtilis CICC 24434
Escherichia coli E44813 = tested on: Escherichia coli E44813
[22] = tested on: Salmonella typhimurium SL1344
[23] = tested on: Listeria monocytogenes CICC 21533
[24] = tested on: Escherichia coli NBRC 3972
[25] = tested on: Staphylococcus epidermidis NBRC 12993
[26] = tested on: Micrococcus luteus NBRC 3333
[27] = tested on: Candida viswanathii NBRC 10321
[28] = tested on: Aspergillus oryzae NBRC 100959

CC[C@H](C)[C@H](NC(=O)[C@H](Cc1ccc(O)cc1)NC(=O)[C@H](Cc1ccc(O)cc1)NC(=O)[C@H](CO)NC(=O)CNC(=O)CNC(=O)[C@H](CC(N)=O)NC(=O)[C@H](CCCN=C(N)N)NC(=O)[C@H](CC(C)C)NC(=O)[C@@H](N)Cc1ccccc1)C(=O)N[C@H](C(=O)N1CCC[C@H]1C(=O)N[C@@H](C)C(=O)N[C@@H](Cc1ccccc1)C(=O)N[C@@H](CCCN=C(N)N)C(=O)NCC(=O)N[C@@H](CCCCN)C(=O)NCC(=O)O)C(C)C [FLRNGGSYYIVPAFRGKG]
MIC [1]: 10 µM (≈ 20 µg/mL) | MIC (Klebsiella oxytoca): 10 µM (≈ 20 µg/mL) | MIC [2]: 10 µM (≈ 20 µg/mL) | MIC (Acinetobacter baumannii): 10 µM (≈ 20 µg/mL) | MIC (Staphylococcus aureus): > 10 µM | MIC [3]: 10 µM (≈ 20 µg/mL) | MIC (Proteus mirabilis): 10 µM (≈ 20 µg/mL) | MIC (Serratia marcescens): 10 µM (≈ 20 µg/mL) | MIC (Klebsiella pneumoniae): > 10 µM | MIC (Klebsiella aerogenes): 10 µM (≈ 20 µg/mL) | MIC [4]: 10 µM (≈ 20 µg/mL) | MIC (Salmonella enterica): 10 µM (≈ 20 µg/mL) | MIC (Enterobacter cloacae): 10 µM (≈ 20 µg/mL) | MIC (Pseudomonas aeruginosa): > 10 µM

CC[C@H](C)[C@H](N)C(=O)N[C@@H](C)C(=O)N[C@@H](C)C(=O)N[C@@H](CCC(=O)O)C(=O)N[C@@H](CCCN=C(N)N)C(=O)N[C@@H](CCCN=C(N)N)C(=O)N[C@@H](Cc1ccc(O)cc1)C(=O)N[C@@H](C)C(=O)N[C@H](C(=O)N[C@H](C(=O)N[C@@H](Cc1ccc(O)cc1)C(=O)N[C@@H](CCC(N)=O)C(=O)N[C@@H](C)C(=O)N[C@@H](CCCN=C(N)N)C(=O)N[C@@H](CC(C)C)C(=O)N[C@@H](Cc1c[nH]c2ccccc12)C(=O)N[C@@H](C)C(=O)N[C@@H](Cc1ccccc1)C(=O)O)[C@@H](C)CC)[C@@H](C)O [IAAERRYATIYQARLWAF]
MIC (Escherichia coli UTI89): ≥ 56.8 µM | MIC (Escherichia coli CFT073): ≥ 56.8 µM | MIC [5]: 56.8 µM (≈ 125 µg/mL) | MIC [6]: 56.8 µM (≈ 125 µg/mL) | MIC [7]: 56.8 µM (≈ 125 µg/mL) | MIC (Escherichia coli): 80.4 µM (≈ 177 µg/mL)

CC[C@H](C)[C@H](NC(=O)[C@@H](N)CCCCN)C(=O)N[C@@H](CCCN=C(N)N)C(=O)N[C@H](C(=O)N[C@@H](CCCN=C(N)N)C(=O)N[C@@H](CC(C)C)C(=O)N[C@@H](CO)C(=O)N[C@@H](C)C(=O)O)C(C)C [KIRVRLSA]
MIC [5]: 17 µM (≈ 16 µg/mL) | MIC [6]: 17 µM (≈ 16 µg/mL) | MIC [8]: ≥ 34 µM | MIC [9]: 17 µM (≈ 16 µg/mL) | MIC (Klebsiella pneumoniae): > 136 µM | MIC [10]: ≥ 136 µM | MIC [11]: 136 µM (≈ 128 µg/mL) | MIC (Escherichia coli): 136 µM (≈ 128 µg/mL)

CC(C)C[C@H](NC(=O)[C@H](CCCCN)NC(=O)[C@H](CC(C)C)NC(=O)[C@H](CCCCN)NC(=O)[C@H](CC(C)C)NC(=O)[C@H](CCCCN)NC(=O)[C@H](CC(C)C)NC(=O)[C@H](CCCCN)NC(=O)[C@H](CC(C)C)NC(=O)[C@@H](N)CCCCN)C(N)=O [KLKLKLKLKL]
MIC [12]: 1.63 µM (≈ 2 µg/mL) | MIC [13]: 6.53 µM and 3.27 µM | MIC [14]: 3.27 µM and 1.63 µM

CC[C@H](C)[C@H](NC(=O)[C@H](CCCCN)NC(=O)[C@H](CCCN=C(N)N)NC(=O)[C@H](CCCCN)NC(=O)[C@H](CCCCN)NC(=O)[C@H](CCCCN)NC(=O)[C@H](Cc1c[nH]c2ccccc12)NC(=O)[C@H](CCCCN)NC(=O)[C@@H](NC(=O)[C@H](CC(C)C)NC(=O)[C@H](Cc1c[nH]c2ccccc12)NC(=O)[C@H](CCCN=C(N)N)NC(=O)[C@H](CC(=O)O)NC(=O)[C@H](CCSC)NC(C)=O)C(C)C)C(=O)N[C@@H](CCCN=C(N)N)C(=O)N[C@@H](CCCN=C(N)N)C(=O)N[C@@H](CCCN=C(N)N)C(=O)N[C@@H](CCCN=C(N)N)C(=O)N[C@@H](CCCN=C(N)N)C(=O)N[C@@H](CCCN=C(N)N)C(=O)N[C@@H](CCCN=C(N)N)C(=O)N[C@@H](CCCN=C(N)N)C(=O)N[C@@H](CCCN=C(N)N)C(=O)N[C@@H](CCCN=C(N)N)C(=O)N[C@@H](CCCN=C(N)N)C(N)=O [MDRWLVKWKKKRKIRRRRRRRRRRR]
MIC [2]: 3 µM (≈ 11 µg/mL) | MIC (Escherichia coli BL21): 5 µM (≈ 18.4 µg/mL) | MIC [15]: 3 µM (≈ 11 µg/mL) | MIC (Staphylococcus aureus): 3 µM (≈ 11 µg/mL) | MIC [16]: 3 µM (≈ 11 µg/mL) | MIC (Escherichia coli MG1655): 11 µM (≈ 40.4 µg/mL) | MIC [17]: 3 µM (≈ 11 µg/mL)

CC[C@H](C)[C@H](NC(=O)[C@@H](NC(=O)[C@@H](N)CCCN=C(N)N)[C@@H](C)CC)C(=O)N[C@@H](CC(=O)O)C(=O)N[C@@H](CCCN=C(N)N)C(=O)N[C@@H](CC(C)C)C(=O)N[C@@H](Cc1c[nH]c2ccccc12)C(=O)N[C@@H](CCCN=C(N)N)C(=O)N[C@H](C(=O)N[C@@H](CCCN=C(N)N)C(=O)N[C@@H](CCCN=C(N)N)C(=O)N1CCC[C@H]1C(=O)N[C@@H](CCC(N)=O)C(=O)N[C@@H](CCCCN)C(=O)N1CCC[C@H]1C(=O)N[C@@H](CCCCN)C(=O)N[C@@H](Cc1ccccc1)C(=O)N[C@H](C(=O)N[C@H](C(=O)N[C@H](C(=O)N[C@@H](Cc1c[nH]c2ccccc12)C(=O)N[C@H](C(=O)N[C@@H](CCCN=C(N)N)C(=O)O)C(C)C)C(C)C)[C@@H](C)O)C(C)C)C(C)C [RIIDRLWRVRRPQKPKFVTVWVR]
MIC [18]: 8.32 µM (≈ 25 µg/mL) | MIC [19]: 0.519 µM (≈ 1.56 µg/mL) | MIC [20]: 0.26 µM (≈ 0.78 µg/mL) | MIC [21]: 0.519 µM (≈ 1.56 µg/mL) | MIC (Escherichia coli E44813): 4.16 µM (≈ 12.5 µg/mL) | MIC [11]: 0.0083 µM (≈ 0.0249 µg/mL) | MIC [22]: 0.519 µM (≈ 1.56 µg/mL) | MIC [23]: ≥ 41.6 µM

CSCC[C@H](NC(=O)[C@H](CCCCN)NC(=O)[C@@H](NC(=O)[C@H](CCCN=C(N)N)NC(=O)[C@H](CCCCN)NC(=O)[C@H](Cc1c[nH]c2ccccc12)NC(=O)[C@H](Cc1ccccc1)NC(=O)[C@H](CCCN=C(N)N)NC(=O)[C@H](CCCCN)NC(=O)[C@H](CC(C)C)NC(=O)[C@H](CCCCN)NC(=O)[C@@H](N)CCCN=C(N)N)C(C)C)C(=O)O [RKLKRFWKRVKM]
MIC [24]: ≥ 239 µM | MIC [25]: 14.9 µM (≈ 25 µg/mL) | MIC [26]: 29.8 µM (≈ 50 µg/mL) | MIC [27]: 29.8 µM (≈ 50 µg/mL) | MIC [28]: 14.9 µM (≈ 25 µg/mL)
